According to patent US20110172296A1, “MODULATION OF TRANSFORMING GROWTH FACTOR-BETA 1 EXPRESSION” (priority 2010, published 2011):
Values joined by “and” are separate entries in the source; they are usually repeats but may differ in a detail not shown here. Identical values can stand only once. In the oligonucleotide strings, read from the 5' end, every base follows the letter of its sugar. An asterisk marks phosphorothioate; unmarked linkages are phosphodiester. Other units and linkages are bracketed, terminal groups are in braces. A string of capitals states the bases alone. e = 2'-O-(2-methoxyethyl) (MOE); [5mC] = 5-methylcytosine; d = 2'-deoxy (DNA)

Columns and labels:
[1] = system: BALB/c mice; test: Tolerability in BALB/c mice: liver, kidney and spleen weights (Example 8); format: in vivo, mouse
Procedure: The mice were sacrificed 2 days after the last administration and liver, spleen and kidney weights were measured. Plasma transaminase levels were also evaluated.
The weights of liver, kidney and spleen of the mice were measured after 4 weeks and liver weights are presented in Table 10 as a percentage change compared to the corresponding weights in the PBS control. The percentage changes in kidney and spleen weight in the treated mice compared to the PBS control were negligible and are not shown.

[2] = system: human TGF-beta1 mRNA; test: Antisense inhibition of human TGF-beta1 mRNA in HuVEC cells, single 10 nM dose, Lipofectamine 2000 (Example 2); format: cell-based; conditions: for % inhibition: 10 nM oligonucleotide, HuVEC, relative to untreated control cells, gapmers targeted to SEQ ID NO: 1; for inhibition of a TGF-beta1 mRNA: threshold lists of Oligo IDs, 10 nM
Procedure, shortened: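 HuVEC cells (5,000/well) transfected with 10 nM 2-13-5 MOE gapmer (phosphorothioate, 5-methylcytosine) via Lipofectamine 2000 for 4 h, then recovered ~24 h. mRNA measured by qRT-PCR, normalized to RIBOGREEN total RNA; percent inhibition versus untreated cells.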

[3] = system: human TGF-beta1 mRNA; test: Dose-dependent antisense inhibition of human TGF-beta1 in HuVEC cells, Lipofectamine 2000, 0.9375-30 nM (Example 3); format: cell-based; conditions: for percent inhibition of TGF-beta1: Lipofectamine 2000
Procedure: Cells were plated at a density of 5,000 cells per well and transfected using Lipofectamine™ 2000 reagent with 0.9375 nM, 1.875 nM, 3.75 nM, 7.5 nM, 15 nM, and 30 nM concentrations of antisense oligonucleotide for 4 hours, as specified in Table 3. After a recovery period of approximately 16 hours, RNA was isolated from the cells and TGF-beta1 mRNA levels were measured by quantitative real-time PCR. Human TGF-beta1 primer probe set RTS 2980 (forward sequence CTCTCCGACCTGCCACAGA, SEQ ID NO: 160; reverse sequence […], SEQ ID NO: 53; probe sequence CCCTATTCAAGACCACCCACCTTCTGGTX, SEQ ID NO: 161) was used to measure mRNA levels. TGF-beta1 mRNA levels were adjusted according to total RNA content, as measured by RIBOGREEN®. Results are presented as percent inhibition of TGF-beta1, relative to untreated control cells.

Substance	Liver % Weight change relative to PBS control ([1]; 25 mg/kg twice a week for 4 weeks)	Liver % Weight change relative to PBS control ([1]; 50 mg/kg twice a week for 4 weeks)	increase in liver weight ([1]; 25 or 50 mg/kg twice a week for 4 weeks, vs PBS control) [%]	% inhibition [2] [%]	inhibition of a TGF-beta1 mRNA [2]	percent inhibition of TGF-beta1 ([3]; 0.9375 nM) [%]	percent inhibition of TGF-beta1 ([3]; 1.875 nM) [%]	percent inhibition of TGF-beta1 ([3]; 3.75 nM) [%]	percent inhibition of TGF-beta1 ([3]; 7.5 nM) [%]	percent inhibition of TGF-beta1 ([3]; 15 nM) [%]	percent inhibition of TGF-beta1 ([3]; 30 nM) [%]	IC50 ([3]; Lipofectamine 2000, Example 3) [nM]
105204 (antisense GTCCACCATTAGCACGCGGG; chemistry not given here) [compound 105204]	+28%	+73%	> 70									
413970 (antisense eG*e[5mC]*d[5mC]*dT*d[5mC]*dA*dG*dG*d[5mC]*dT*dG*d[5mC]*dT*d[5mC]*d[5mC]*eT*e[5mC]*eG*eG*e[5mC]) [compound 413970]				87	60% and 65% and 70% and 75% and 80% and 85%	48	64	81	91	94	95	
413979 (antisense eG*eG*d[5mC]*dT*d[5mC]*d[5mC]*d[5mC]*dA*dG*d[5mC]*dG*dG*d[5mC]*dA*dA*e[5mC]*eG*eG*eA*eA) [compound 413979]				87	60% and 65% and 70% and 75% and 80% and 85%	42	62	80	92	95	94	
414022 (antisense eG*eG*dG*d[5mC]*dT*d[5mC]*d[5mC]*dG*dG*dT*dT*d[5mC]*dT*dG*d[5mC]*eA*e[5mC]*eT*e[5mC]*eT) [compound 414022]				84	60% and 65% and 70% and 75% and 80%	31	50	76	85	91	92	1.67
